{"source": "paper PMC2994021", "about": "“Isolation of cytoplasmic NADPH-dependent phenol hydroxylase and catechol-1,2-dioxygenase from Candida tropicalis yeast” (Interdisciplinary Toxicology, 2010)", "system": "T1, NADPH-dependent phenol hydroxylase", "T1 construct": "native enzyme purified from cytosol of phenol-grown yeast (DEAE-Sepharose, PEG 6000, Sepharose 4B), close to homogeneity", "experiment": "HPLC of phenol consumption, Michaelis-Menten kinetics", "type": "biochemical, Candida tropicalis", "details": "with NADPH; same Km from catechol formation; read-out: apparent Km", "data": [{"smiles": "Oc1ccccc1", "note": "[phenol]", "values": [{"measurement": "Km", "result": 450, "unit": "µM"}]}]}
